The target in one data set is T1, COX-2 (Homo sapiens, UniProt P35354).
T1 construct: host or cells: Sf21 insect cells
T1 sequence (P35354 18-604): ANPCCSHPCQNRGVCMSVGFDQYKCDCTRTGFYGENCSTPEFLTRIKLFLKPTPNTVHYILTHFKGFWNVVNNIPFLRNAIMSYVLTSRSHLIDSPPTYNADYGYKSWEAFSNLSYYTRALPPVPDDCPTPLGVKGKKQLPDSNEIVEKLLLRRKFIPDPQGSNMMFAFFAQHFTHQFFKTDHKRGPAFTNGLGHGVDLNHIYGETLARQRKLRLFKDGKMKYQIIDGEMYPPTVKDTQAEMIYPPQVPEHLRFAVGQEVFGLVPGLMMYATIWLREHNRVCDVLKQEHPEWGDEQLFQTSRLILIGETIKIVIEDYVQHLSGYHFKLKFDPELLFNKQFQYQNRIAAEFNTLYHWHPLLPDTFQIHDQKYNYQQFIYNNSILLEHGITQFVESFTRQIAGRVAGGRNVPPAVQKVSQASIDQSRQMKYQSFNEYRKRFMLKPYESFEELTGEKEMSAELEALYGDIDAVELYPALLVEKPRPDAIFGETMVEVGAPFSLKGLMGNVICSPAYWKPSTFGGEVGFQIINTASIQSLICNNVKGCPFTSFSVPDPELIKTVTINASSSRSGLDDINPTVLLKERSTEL
Description: COX-2 inhibition (PGE2 enzyme immunoassay). Conditions: read-out: % COX-2 inhibition. Type of data set: biochemical. On the procedure: (§1) The COX-1 inhibitory activity of representative compounds of the invention was determined according to previously reported methods. COX-1 activity was assessed in human platelets using 100 µM arachidonic acid as a substrate and preincubation and incubation times of 15 min at 37 °C in HBSS, 15 mM HEPES pH 7.4 . The quantification method used was enzyme immunoassay determination of PGE2 (Chan, C.C. et al. J Pharmacol Exp Ther, 1999, 290, 551-560; Swinney, D.C. et al. J Biol Chem, 1997, 272, 12393-12398; Warner, T.D. et al. Proc Natl Acad Sci U S A, 1999, 96, 7563-7568; Riendeau, D. et al. Can J Physiol Pharmacol, 1997, 75, 1088-1095). COX-2 inhibitory activity was determined in human recombinant insect Sf21 cells according to references (Warner, T.D. et al., Proc Natl Acad Sci, USA. 1999;96(13):7563-7568; Riendeau, D. et al., Can J Physiol Pharmacol, 1997 ;75(9):1088-1095). Briefly, the COX-2 inhibitory activity was assessed on human recombinant insect Sf21 cells using 0.3 µM arachidonic acid as a substrate and preincubation and incubation times of 15 and 5 min, respectively, at 37 °C in 100 mM Tris-HCl, pH 7.7. The quantification method used was enzyme immunoassay determination of PGE2. Table 11. Inhibition of COX-1 and COX-2 at 10 µM

Another data set addresses T2, 5-LO (Homo sapiens, UniProt P09917).
T2 construct: host or cells: Sf9 insect cells
T2 sequence (P09917 1-674): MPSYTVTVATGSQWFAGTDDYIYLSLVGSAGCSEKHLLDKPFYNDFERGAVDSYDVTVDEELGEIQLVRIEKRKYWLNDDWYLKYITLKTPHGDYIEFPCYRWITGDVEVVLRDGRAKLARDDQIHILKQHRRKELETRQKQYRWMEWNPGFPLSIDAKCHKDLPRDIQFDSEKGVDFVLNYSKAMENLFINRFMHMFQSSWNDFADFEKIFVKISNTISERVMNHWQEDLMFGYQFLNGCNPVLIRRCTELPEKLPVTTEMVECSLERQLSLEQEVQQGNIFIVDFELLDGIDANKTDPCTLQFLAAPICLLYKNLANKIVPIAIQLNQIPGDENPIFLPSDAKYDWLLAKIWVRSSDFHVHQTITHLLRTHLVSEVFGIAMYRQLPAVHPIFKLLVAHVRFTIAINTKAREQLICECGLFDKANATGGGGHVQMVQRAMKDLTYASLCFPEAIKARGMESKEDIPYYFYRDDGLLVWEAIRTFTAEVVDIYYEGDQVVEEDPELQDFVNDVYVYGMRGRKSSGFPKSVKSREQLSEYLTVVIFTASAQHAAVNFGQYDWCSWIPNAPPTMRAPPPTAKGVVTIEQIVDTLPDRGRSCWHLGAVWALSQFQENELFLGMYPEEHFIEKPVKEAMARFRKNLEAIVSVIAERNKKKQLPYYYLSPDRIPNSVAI
Nature of the data set: 5-Lipoxygenase inhibition (LTB4 enzyme immunoassay). The format is biochemical. The method, then: The 5-LO-inhibitory activity of compounds of the invention was determined using previously reported assays. Briefly, lipoxygenase activity was evaluated in human recombinant insect Sf9 cells using 3µM arachidonic acid as a substrate with a preincubation and incubation times of 15 and 5 min respectively at 25°C in a 50 mM Tris-HCl, pH 7.4, 2 mM CaCl2, 1 mM ATP. The quantification method used was enzyme immunoassay determination of LTB4 and the significance criteria were established with a response equal or different of the maximum stimulation or inhibition (Noguchi, M. et al., Eur J Biochem, 1994, 222(2), 285-292; Percival, M.D. et al., Eur J Biochem, 1992, 210(1), 109-117).

In the next data set the target is T3, COX-1 (Homo sapiens, UniProt P23219).
T3 construct: endogenous in cells; host or cells: human platelets
Nature of the data set: COX-1 inhibition in human platelets (PGE2 enzyme immunoassay). Conditions: read-out: % COX-1 Inhibition. The format is biochemical. The method, then: as §1

The nature of data set [1]: Maximum Tolerated Dose after acute administration. The note with it: mouse, in vivo, po, mice. The method, then:
The Maximum Tolerated Dose (MTD) in mice was determined for selected compounds. The protocol of the studies was in accordance with the standard guidelines for drug development: • (htp://dtp.nci.nih.gov/branches/btb/acute tox.html). Table 10. Maximum Tolerated Doses in mice after acute i.p. administration

The subject of the next data set is mice. The note with it: formalin test, active dose of external active reference, cited from earlier work; for Dose (mg / Kg) Early Response: p.o.; for Dose (mg / Kg) Late Response: route not given.
Another data set has as its system tumor ovary OVCAR-3. Description: Tumor cell proliferation assay (alamarBlue). Type of data set: cell-based. Conditions: Homo sapiens, OVCAR-3. The method, then: (§2) Changes in cell proliferation were detected based on the ability of viable cells to cause alamarBlue® to change its oxidized (non-fluorescent, blue) to a reduced (fluorescent, red) form. The alamarBlue® reaction allows the quantification of cell proliferation and examination of the metabolic activity of viable cells. Test substances were examined for activity on the proliferation of human or murine tumor cell lines at assay concentrations from 0.01 to 100 µM.
Background: Resazurin is reduced to fluorescent resorufin, in cell work by metabolically active cells.

In another data set the test system is tumor colon HCT-116. Description: Tumor cell proliferation assay (alamarBlue). The format is cell-based. The note with it: Homo sapiens, HCT-116. On the procedure: as §2
The test system of the next data set is tumor prostate LNCaP-FGC. Description: Tumor cell proliferation assay (alamarBlue). Type of data set: cell-based. The note with it: Homo sapiens. On the procedure: as §2
Another data set deals with tumor lung A549. Description: Tumor cell proliferation assay (alamarBlue). Type of data set: cell-based. Conditions: Homo sapiens, A549. The method, then:
as §2

The next data set deals with tumor brain U-87 MG. Description: Tumor cell proliferation assay (alamarBlue). The format is cell-based. The note with it: Homo sapiens, U-87 MG. The method, then: as §2
The subject of another data set is tumor liver HepG2. Nature of the data set: Tumor cell proliferation assay (alamarBlue). The format is cell-based. The note with it: Homo sapiens, HepG2. The method, then:
as §2

A further data set concerns tumor leukaemia K562. Description: Tumor cell proliferation assay (alamarBlue). The format is cell-based. Conditions: Homo sapiens, K562. On the procedure: as §2
The next data set concerns the target T4, EGFR (Homo sapiens, UniProt P00533).
T4 construct: EGF receptor tyrosin-protein kinase activity was assessed in human A431 cells; endogenous in cells; host or cells: human A431 cells
Description: EGF receptor tyrosine-protein kinase inhibition (ELISA of Poly[Glu:Tyr-P]). Type of data set: biochemical. On the procedure: EGF receptor tyrosin-protein kinase activity was assessed in human A431 cells using as a substrate Poly(Glu:Tyr) at 10 µg/ml with a preincubation and incubation times of 15 and 60 min, respectively, at 25°C respectively in 50 mM HEPES pH 7.4, 20 mM MgCl2 and 0.2 mM Na3VO4. An ELISA quantification method of Poly[Glu:Tyr-P] was employed (Cheng, K. and Koland, J.G. J Biol Chem, 1996, 271, 311-318). Table 5. Inhibition of EGFR at 10 µM
For orientation: In an ELISA, binding on a coated surface is turned into a signal by an enzyme label.

For the next data set, the system named is tumor melanoma B16-FO. Description: Tumor cell proliferation assay (alamarBlue). The format is cell-based, murine. The note with it: Mus musculus. The method, then:
as §2

A short description of data set [2]: log D octanol/water distribution coefficient. Type of data set: physicochemical. From the text:
Lipophilicity has been correlated to various drug properties, affecting permeability, absorption, distribution, plasma protein binding, metabolism, elimination, and toxicity. In contrast to honokiol and magnolol, compounds claimed in the invention, and more particularly those wherein the nitrogen atom in the group -O-CH(phenyl)-(CH2)p-NH-R^3 is protonated and the compound further comprises a pharmaceutically acceptable counter-anion present an optimal log Doctanol/water (range 0-3), indicating good aqueous solubility, permeability, oral absorption, and blood-brain barrier penetration. Experimental studies in murine models have confirmed the results.
Absorption, distribution and metabolism studies in vitro with selected examples were performed in order to determine pharmacokinetic parameters such as permeability (or absorption constant), intrinsic clearance (or metabolic clearance), and bioavailability. Physicochemical properties such as water solubility, pKa, log P, and log Doctanol/water, and in vitro experimental studies such as permeability in Caco2 cells, and protein binding in the mouse, stability in murine microsomes, chemical stability at different pH and stability in plasma were evaluated for the pharmacokinetic prediction in mice.

One may read the inhibition as the drop in the measured response relative to a control, in per cent. By MTD is commonly meant the largest dose that counted as tolerated. As usually defined, the IC50 is the concentration that inhibits the measured activity by half. Lower therefore signals greater potency.

Read-outs that look alike come from different tables or passages of the source.

T3 sequence (P23219 24-599): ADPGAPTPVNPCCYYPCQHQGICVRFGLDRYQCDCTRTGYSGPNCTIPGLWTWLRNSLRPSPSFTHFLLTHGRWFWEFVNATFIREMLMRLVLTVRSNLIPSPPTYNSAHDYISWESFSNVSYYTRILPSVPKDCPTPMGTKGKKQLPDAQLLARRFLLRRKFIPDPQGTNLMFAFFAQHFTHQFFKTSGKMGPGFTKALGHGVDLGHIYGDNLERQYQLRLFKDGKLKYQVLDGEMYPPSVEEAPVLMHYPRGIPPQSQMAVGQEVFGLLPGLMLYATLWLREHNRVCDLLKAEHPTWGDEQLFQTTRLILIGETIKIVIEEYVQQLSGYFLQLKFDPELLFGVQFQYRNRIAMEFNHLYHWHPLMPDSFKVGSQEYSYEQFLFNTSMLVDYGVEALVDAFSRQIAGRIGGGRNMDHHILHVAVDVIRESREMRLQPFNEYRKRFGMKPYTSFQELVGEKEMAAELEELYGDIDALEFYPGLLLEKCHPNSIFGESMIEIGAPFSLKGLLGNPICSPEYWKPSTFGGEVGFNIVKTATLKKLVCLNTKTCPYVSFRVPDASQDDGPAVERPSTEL
T4 sequence (P00533 25-1210): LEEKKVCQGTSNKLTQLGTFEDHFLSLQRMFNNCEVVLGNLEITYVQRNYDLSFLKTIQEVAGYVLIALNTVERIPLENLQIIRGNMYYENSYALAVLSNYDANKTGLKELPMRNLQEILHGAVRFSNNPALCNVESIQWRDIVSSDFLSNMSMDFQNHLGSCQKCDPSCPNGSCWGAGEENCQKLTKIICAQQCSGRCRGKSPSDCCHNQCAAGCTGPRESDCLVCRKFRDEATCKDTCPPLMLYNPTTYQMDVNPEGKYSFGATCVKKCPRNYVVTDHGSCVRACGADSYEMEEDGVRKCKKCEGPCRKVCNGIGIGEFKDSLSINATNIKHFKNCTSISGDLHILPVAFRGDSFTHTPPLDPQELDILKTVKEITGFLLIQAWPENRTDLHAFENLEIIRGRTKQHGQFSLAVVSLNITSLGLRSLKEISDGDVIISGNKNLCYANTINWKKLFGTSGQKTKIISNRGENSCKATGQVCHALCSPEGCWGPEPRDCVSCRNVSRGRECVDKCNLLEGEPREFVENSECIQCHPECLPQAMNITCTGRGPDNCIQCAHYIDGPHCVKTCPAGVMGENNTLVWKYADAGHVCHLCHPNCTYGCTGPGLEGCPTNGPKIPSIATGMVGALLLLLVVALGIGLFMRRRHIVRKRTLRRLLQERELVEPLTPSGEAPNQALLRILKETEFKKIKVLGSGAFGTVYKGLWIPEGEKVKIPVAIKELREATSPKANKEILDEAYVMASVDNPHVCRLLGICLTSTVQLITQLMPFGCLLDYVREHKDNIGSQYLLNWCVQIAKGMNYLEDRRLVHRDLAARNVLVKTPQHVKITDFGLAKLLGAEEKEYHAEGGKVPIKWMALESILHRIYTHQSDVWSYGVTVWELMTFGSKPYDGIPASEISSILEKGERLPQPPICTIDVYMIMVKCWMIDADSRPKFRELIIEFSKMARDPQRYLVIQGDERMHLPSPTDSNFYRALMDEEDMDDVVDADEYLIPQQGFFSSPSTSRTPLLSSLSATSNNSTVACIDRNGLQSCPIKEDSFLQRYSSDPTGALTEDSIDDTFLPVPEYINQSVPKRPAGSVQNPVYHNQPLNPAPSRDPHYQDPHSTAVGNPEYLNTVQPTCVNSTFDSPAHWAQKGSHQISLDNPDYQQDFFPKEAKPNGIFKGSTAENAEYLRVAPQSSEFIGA

Consider `C=CCc1ccc(OC(CCNC)c2ccccc2)c(-c2ccc(O)c(CC=C)c2)c1.Cl` (stereo not drawn) [Example 4, 3,5'-Diallyl-2'-[3-(methylamino)-1-phenylpropoxy]biphenyl-4-ol hydrochloride], for which the inhibition at 10 µM at COX-2 (at 10 µM) amounted to 0%; at 5-LO (5-LO, at 10 µM, read-out: % Inhibition) it was 100%; at COX-1 (at 10 µM, human platelets) it was 81%. Moreover, the MTD in data set [1] stood at 30 mg/kg.
For `CC(=O)Nc1ccc(O)cc1` [Paracetamol], in the data set on mice, the “Dose (mg / Kg) Early Response” value is given as 200-400 p.o. mg / Kg and the “Dose (mg / Kg) Late Response” value was 300 to 400 mg/kg.
In the case of `C=CCc1ccc(O)c(-c2cc(CC=C)ccc2O)c1` [Magnolol, reference compound], the inhibition at 10 µM was 95% on COX-2, -26% against EGFR, 67% at 5-LO and 21% at COX-1. Further, the IC50 came to 23 µM in the data set on tumor ovary OVCAR-3; 17 µM in the data set on tumor colon HCT-116; 5.1 µM with tumor prostate LNCaP-FGC; 19 µM in the data set with tumor lung A549; 48 µM in the data set with tumor brain U-87 MG; 12 µM in the data set with tumor liver HepG2. The IC50 with tumor leukaemia K562 came to 48 µM; in the data set on tumor melanoma B16-FO it was 28 µM. In [2], the logDoctanol/water stood at 5.25.
Regarding `CC(=O)Oc1ccccc1C(=O)O` [Aspirin], in the data set with mice, the “Dose (mg / Kg) Early Response” value is listed as 200-400 p.o. mg / Kg and the “Dose (mg / Kg) Late Response” value was 300 to 400 mg/kg.

(Values after patent EP2423181A1, “Multitarget substituted biphenyl diol derivatives” (PROUS INSTITUTE FOR BIOMEDICAL RESEARCH S.A., priority 2010, dated 2012).)
